Experimental data: patent US6583248B1, “Polymerizable cyclodextrin derivatives” (American Dental Association Health Foundation, priority 1997, dated 2003)

Test: Qualitative solubility tests (polarizing microscope, drop of liquid under cover glass)
Format: physicochemical
Source text: Qualitative solubility tests. A few granules of the βCD or MβCD were placed on a microscope slide, covered with a cover glass, and examined with a polarizing microscope while a drop of liquid was placed to flow under the cover glass. These liquids comprised solvents having a wide range of solubility parameters and a number of monomers that might be of interest in dental or industrial formulations.

Q: What does the source list for `OC[C@H]1O[C@@H]2O[C@H]3[C@H](O)[C@@H](O)[C@@H](O[C@H]4[C@H](O)[C@@H](O)[C@@H](O[C@H]5[C@H](O)[C@@H](O)[C@@H](O[C@H]6[C@H](O)[C@@H](O)[C@@H](O[C@H]7[C@H](O)[C@@H](O)[C@@H](O[C@H]8[C@H](O)[C@@H](O)[C@@H](O[C@H]1[C@H](O)[C@H]2O)O[C@@H]8CO)O[C@@H]7CO)O[C@@H]6CO)O[C@@H]5CO)O[C@@H]4CO)O[C@@H]3CO` [βCD, beta-cyclodextrin, reference compound]?
A: subjective solubility in ethylene glycol dimethyl ether (ethylene glycol dimethyl ether): practically insoluble; subjective solubility in methanol: practically insoluble; subjective solubility in water: very slowly and only slightly soluble

Q: For “fully methacrylated beta-cyclodextrin [MβCD]”, which “subjective solubility in 1,3-glycerol dimethacrylate” value (1,3-glycerol dimethacrylate) is on record?
A: Its value is “slowly soluble”.

Q: And the “subjective solubility in benzyl methacrylate” value (benzyl methacrylate)?
A: Its value is “promptly soluble”.

Q: And the “subjective solubility in hydroxyethyl methacrylate” value (hydroxyethyl methacrylate)?
A: Its value is “promptly soluble”.

Q: What about the “subjective solubility in methanol” value of the same compound?
A: The value was “very rapidly soluble (miscible)”.

Q: And the “subjective solubility in triethyleneglycol dimethacrylate” value (triethyleneglycol dimethacrylate)?
A: The value was “slowly soluble”.

Q: And the “subjective solubility in undiluted BIS-GMA” value (undiluted BIS-GMA)?
A: Its value is “very slowly soluble”.

Q: And the “subjective solubility in water” value?
A: Its value is “practically insoluble”.
